From ChEMBL document CHEMBL3244417, “Potential antitumor agents. 32. Role of agent base strength in the quantitative structure--antitumor relationships for 4'-(9-acridinylamino)methanesulfonanilide analogues” (J Med Chem, 1979)

assay: physchem
Description: Dissociation constant, pKa of the compound by UV spectrophotometric analysis

SMILES | pKa
CCCCCS(=O)(=O)Nc1ccc(Nc2c3ccccc3nc3c(C(=O)NCCCC)cccc23)c(OC)c1 | 6.36
CCCS(=O)(=O)Nc1ccc(Nc2c3ccccc3nc3cc(OC)ccc23)c(OC)c1 | 7.38
CCCCNC(=O)c1cccc2c(Nc3ccc(NS(C)(=O)=O)cc3OC)c3ccccc3nc12 | 6.36
CCCCOc1ccc2c(Nc3ccc(NS(C)(=O)=O)cc3OC)c3ccccc3nc2c1 | 7.34
CCOc1ccc2c(Nc3ccc(NS(C)(=O)=O)cc3OC)c3ccccc3nc2c1 | 7.37
CNC(=O)CNC(=O)c1cccc2c(Nc3ccc(NS(C)(=O)=O)cc3OC)c3ccccc3nc12 | 6.2
NC(=O)CCCc1ccc(Nc2c3ccccc3nc3ccccc23)cc1 | 7.67
NC(=O)CCCCCCCc1ccc(Nc2c3ccccc3nc3ccccc23)cc1 | 7.7
NC(=O)CCCCCCCCc1ccc(Nc2c3ccccc3nc3ccccc23)cc1 | 7.7
CCCOc1ccc2c(Nc3ccc(NS(C)(=O)=O)cc3OC)c3ccccc3nc2c1 | 7.36
COc1cc(NS(C)(=O)=O)ccc1Nc1c2ccccc2nc2c(C(=O)N(C)C)cccc12 | 6.16
CCS(=O)(=O)Nc1ccc(Nc2c3ccccc3nc3cc(OC)ccc23)c(OC)c1 | 7.36
CCCS(=O)(=O)Nc1ccc(Nc2c3ccccc3nc3cc([N+](=O)[O-])ccc23)c(OC)c1 | 5.69
COc1cc(NS(C)(=O)=O)ccc1Nc1c2ccccc2nc2cc(OCCO)ccc12 | 7.36
NC(=O)CCCCCCc1ccc(Nc2c3ccccc3nc3ccccc23)cc1 | 7.7
CCCS(=O)(=O)Nc1ccc(Nc2c3ccccc3nc3ccccc23)c(OC)c1 | 7.41
COc1cc(NS(C)(=O)=O)ccc1Nc1c2ccccc2nc2cc(OCC(O)CO)ccc12 (stereo unspecified) | 7
CCCCS(=O)(=O)Nc1ccc(Nc2c3ccccc3nc3cc(OC)ccc23)c(OC)c1 | 7.35
CCCCS(=O)(=O)Nc1ccc(Nc2c3ccccc3nc3c(C(N)=O)cccc23)c(OC)c1 | 6.34
CCCCCCCS(=O)(=O)Nc1ccc(Nc2c3ccccc3nc3ncccc23)c(OC)c1 | 6.04
CCCCCS(=O)(=O)Nc1ccc(Nc2c3ccccc3nc3ncccc23)c(OC)c1 | 6.05

SMILES | pKa
CCCCS(=O)(=O)Nc1ccc(Nc2c3ccccc3nc3ncccc23)c(OC)c1 | 6.06
COc1cc(NS(C)(=O)=O)ccc1Nc1c2ccccc2nc2cc([N+](=O)[O-])ccc12 | 5.72
CCS(=O)(=O)Nc1ccc(Nc2c3ccccc3nc3ccccc23)c(OC)c1 | 7.4
COc1ccc2c(Nc3ccc(NS(C)(=O)=O)cc3OC)c3ccccc3nc2c1 | 7.39
CCCS(=O)(=O)Nc1ccc(Nc2c3ccccc3nc3c(C(N)=O)cccc23)c(OC)c1 | 6.35
NC(=O)CCCCc1ccc(Nc2c3ccccc3nc3ccccc23)cc1 | 7.7
COc1cc(NS(C)(=O)=O)ccc1Nc1c2ccccc2nc2c(C(=O)NCC(O)CO)cccc12 (stereo unspecified) | 6.34
CCCCNC(=O)c1cccc2c(Nc3ccc(NS(=O)(=O)CCC)cc3OC)c3ccccc3nc12 | 6.35
CCS(=O)(=O)Nc1ccc(Nc2c3ccccc3nc3cc([N+](=O)[O-])ccc23)c(OC)c1 | 5.7
CCS(=O)(=O)Nc1ccc(Nc2c3ccccc3nc3ncccc23)c(OC)c1 | 6.07
COc1cc(NS(C)(=O)=O)ccc1Nc1c2ccccc2nc2c(C(N)=O)cccc12 | 6.37
CCCS(=O)(=O)Nc1ccc(Nc2c3ccccc3nc3ncccc23)c(OC)c1 | 6.04
COc1cc(NS(C)(=O)=O)ccc1Nc1c2ccccc2nc2c(C(=O)NCC(N)=O)cccc12 | 6.18
COc1cc(NS(C)(=O)=O)ccc1Nc1c2ccccc2nc2ncccc12 | 6.09
CNC(=O)COc1ccc2c(Nc3ccc(NS(C)(=O)=O)cc3OC)c3ccccc3nc2c1 | 7.35
CNC(=O)c1cccc2c(Nc3ccc(NS(C)(=O)=O)cc3OC)c3ccccc3nc12 | 6.36
NC(=O)CCCCCc1ccc(Nc2c3ccccc3nc3ccccc23)cc1 | 7.7
COc1cc(NS(C)(=O)=O)ccc1Nc1c2ccccc2nc2cc(OCCCC(N)=O)ccc12 | 7.36
CCS(=O)(=O)Nc1ccc(Nc2c3ccccc3nc3c(C(N)=O)cccc23)c(OC)c1 | 6.35
COc1cc(NS(C)(=O)=O)ccc1Nc1c2ccccc2nc2ccccc12 | 7.34

Continued, values first:

pKa | SMILES
7.19 | CCCCCS(=O)(=O)Nc1ccc(Nc2c3ccccc3nc3ccccc23)cc1
6.33 | CCCCCCCS(=O)(=O)Nc1ccc(Nc2c3ccccc3nc3c(C(N)=O)cccc23)c(OC)c1
7.44 | CCCCCCCCS(=O)(=O)Nc1ccc(Nc2c3ccccc3nc3ccccc23)c(OC)c1
7.54 | CCS(=O)(=O)Nc1ccc(Nc2c3ccccc3nc3cc(NC(C)=O)ccc23)c(OC)c1
7.42 | CCCCCCS(=O)(=O)Nc1ccc(Nc2c3ccccc3nc3ccccc23)c(OC)c1
7.19 | CCS(=O)(=O)Nc1ccc(Nc2c3ccccc3nc3ccccc23)cc1
7.57 | CCCS(=O)(=O)Nc1ccc(Nc2c3ccccc3nc3cc(NC(C)=O)ccc23)c(OC)c1
5.7 | CCCCCCS(=O)(=O)Nc1ccc(Nc2c3ccccc3nc3cc([N+](=O)[O-])ccc23)c(OC)c1
7.56 | CCCCS(=O)(=O)Nc1ccc(Nc2c3ccccc3nc3cc(NC(C)=O)ccc23)c(OC)c1
7.54 | CCCCCCS(=O)(=O)Nc1ccc(Nc2c3ccccc3nc3cc(NC(C)=O)ccc23)c(OC)c1
7.35 | CCCCCS(=O)(=O)Nc1ccc(Nc2c3ccccc3nc3cc(NC(C)=O)ccc23)cc1
7.39 | CCCCCS(=O)(=O)Nc1ccc(Nc2c3ccccc3nc3ccccc23)c(OC)c1
6.03 | CCCCCCS(=O)(=O)Nc1ccc(Nc2c3ccccc3nc3ncccc23)c(OC)c1
7.17 | CCCCCCS(=O)(=O)Nc1ccc(Nc2c3ccccc3nc3ccccc23)cc1
7.54 | CCCCCS(=O)(=O)Nc1ccc(Nc2c3ccccc3nc3cc(NC(C)=O)ccc23)c(OC)c1
7.42 | CCCCCCCS(=O)(=O)Nc1ccc(Nc2c3ccccc3nc3ccccc23)c(OC)c1
6.36 | CCCCCS(=O)(=O)Nc1ccc(Nc2c3ccccc3nc3c(C(N)=O)cccc23)c(OC)c1
7.55 | CCCCCCCS(=O)(=O)Nc1ccc(Nc2c3ccccc3nc3cc(NC(C)=O)ccc23)c(OC)c1
5.71 | CCCCS(=O)(=O)Nc1ccc(Nc2c3ccccc3nc3cc([N+](=O)[O-])ccc23)c(OC)c1
7.34 | CCCCCCS(=O)(=O)Nc1ccc(Nc2c3ccccc3nc3cc(NC(C)=O)ccc23)cc1
7.41 | CCCCS(=O)(=O)Nc1ccc(Nc2c3ccccc3nc3ccccc23)c(OC)c1
6.33 | CCCCCCS(=O)(=O)Nc1ccc(Nc2c3ccccc3nc3c(C(N)=O)cccc23)c(OC)c1
5.69 | CCCCCCCS(=O)(=O)Nc1ccc(Nc2c3ccccc3nc3cc([N+](=O)[O-])ccc23)c(OC)c1
7.32 | CCCCS(=O)(=O)Nc1ccc(Nc2c3ccccc3nc3cc(NC(C)=O)ccc23)cc1
7.33 | CCCS(=O)(=O)Nc1ccc(Nc2c3ccccc3nc3cc(NC(C)=O)ccc23)cc1
7.56 | COc1cc(NS(C)(=O)=O)ccc1Nc1c2ccccc2nc2cc(NC(C)=O)ccc12
5.69 | CCCCCS(=O)(=O)Nc1ccc(Nc2c3ccccc3nc3cc([N+](=O)[O-])ccc23)c(OC)c1
7.35 | CCS(=O)(=O)Nc1ccc(Nc2c3ccccc3nc3cc(NC(C)=O)ccc23)cc1
7.2 | CCCS(=O)(=O)Nc1ccc(Nc2c3ccccc3nc3ccccc23)cc1
7.18 | CCCCS(=O)(=O)Nc1ccc(Nc2c3ccccc3nc3ccccc23)cc1
